In ChEMBL document CHEMBL1201862, “PubChem BioAssay data set” (2004):
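96-well plates; 48 h exposure; 5 concentrations. Endpoints by linear interpolation between flanking doses. Not reached: highest tested concentration assigned. GI50 is the concentration that inhibits growth by half.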 Active and inactive are the calls of the source. Cut-off read from the data, not from the text of the source: active = GI50 up to about 1.1 µM and inactive = higher.

Assays:
Assay in all cases: growth of human tumour cells (NCI), 48 h
[1] = system: UO-31
[2] = system: BT-549
[3] = system: MDA-MB-231
[4] = system: KM12
[5] = system: NCI-H460
[6] = system: SK-MEL-2
[7] = system: HOP-62
[8] = system: SF-539
[9] = system: SK-MEL-5
[10] = system: OVCAR-4
[11] = system: A498
[12] = system: DU-145
[13] = system: LOX IMVI
[14] = system: UACC-62
[15] = system: T47D
[16] = system: SN12C
[17] = system: SNB-75
[18] = system: SF-268
[19] = system: HCC 2998
[20] = system: NCI-H23

Compound | GI50 [1] | GI50 [2] | GI50 [3] | GI50 [4] | GI50 [5] | GI50 [6] | GI50 [7] | GI50 [8] | GI50 [9] | GI50 [10] | GI50 [11] | GI50 [12] | GI50 [13] | GI50 [14] | GI50 [15] | GI50 [16] | GI50 [17] | GI50 [18] | GI50 [19] | GI50 [20]
O=C(OCc1ccccc1)N1CCNCCN(C(=O)OCc2ccccc2)CCNCC1 | 7.03 µM (inactive) | 45.6 µM (inactive) | 1.82 µM (inactive) | 26 µM (inactive) | 21.6 µM (inactive) | 20.1 µM (inactive) | 16.9 µM (inactive) | 14.6 µM (inactive) | 13.4 µM (inactive) | 40.4 µM (inactive) | 27.5 µM (inactive) | 95.7 µM (inactive) | 13.2 µM (inactive) | 27.5 µM (inactive) | 0.254 µM (active) | 39.4 µM (inactive) | 25.6 µM (inactive) | – | – | –
Cc1cc(=O)n2nc(CSc3nnc(N)s3)sc2n1 | > 100 µM (inactive) | > 100 µM (inactive) | > 100 µM (inactive) | > 100 µM (inactive) | > 100 µM (inactive) | > 100 µM (inactive) | > 100 µM (inactive) | > 100 µM (inactive) | > 100 µM (inactive) | > 100 µM (inactive) | – | > 100 µM (inactive) | > 100 µM (inactive) | > 100 µM (inactive) | > 100 µM (inactive) | > 100 µM (inactive) | > 100 µM (inactive) | > 100 µM (inactive) | > 100 µM (inactive) | > 100 µM (inactive)
CN1C2CC(=O)CC1[C@@H]1OC(c3ccccc3)O[C@H]21 (stereo partly drawn) | > 100 µM (inactive) | > 100 µM (inactive) | > 100 µM (inactive) | > 100 µM (inactive) | > 100 µM (inactive) | > 100 µM (inactive) | > 100 µM (inactive) | > 100 µM (inactive) | > 100 µM (inactive) | > 100 µM (inactive) | – | > 100 µM (inactive) | > 100 µM (inactive) | > 100 µM (inactive) | > 100 µM (inactive) | > 100 µM (inactive) | > 100 µM (inactive) | > 100 µM (inactive) | > 100 µM (inactive) | > 100 µM (inactive)
CC(C)(C)C(=O)CC1(O)C=C(O)C(O)(CC(=O)C(C)(C)C)O1 (stereo not drawn) | 29.4 µM (inactive) | 66.4 µM (inactive) | 55 µM (inactive) | 63.5 µM (inactive) | 10.1 µM (inactive) | 38.7 µM (inactive) | 15.5 µM (inactive) | 18.8 µM (inactive) | 21.2 µM (inactive) | 12.8 µM (inactive) | > 100 µM (inactive) | 50.2 µM (inactive) | 12.5 µM (inactive) | 26.5 µM (inactive) | > 100 µM (inactive) | 14.7 µM (inactive) | – | 11.6 µM (inactive) | > 100 µM (inactive) | 22.1 µM (inactive)
CC(=O)OCC1OC(SC2=N/C(=C\c3ccc(Br)s3)C(=O)N2CN2CCOCC2)C(OC(C)=O)C(OC(C)=O)C1OC(C)=O (stereo not drawn) | 15.5 µM (inactive) | 14.9 µM (inactive) | 26.7 µM (inactive) | 17.2 µM (inactive) | 18.6 µM (inactive) | 0.383 µM (active) | 23 µM (inactive) | – | 19.1 µM (inactive) | 29.4 µM (inactive) | 20.5 µM (inactive) | 16.5 µM (inactive) | 12.9 µM (inactive) | 15.4 µM (inactive) | 27.9 µM (inactive) | 13.6 µM (inactive) | 25.4 µM (inactive) | 32.8 µM (inactive) | 19.8 µM (inactive) | 12.7 µM (inactive)
O[C@@H]1[C@H](OC2c3ccccc3-c3ccccc32)[C@H](OCc2ccccc2)[C@@H]2OC[C@H]1O2 | > 100 µM (inactive) | > 100 µM (inactive) | 51.3 µM (inactive) | > 100 µM (inactive) | – | > 100 µM (inactive) | 25.8 µM (inactive) | 23 µM (inactive) | > 100 µM (inactive) | 91 µM (inactive) | > 100 µM (inactive) | > 100 µM (inactive) | > 100 µM (inactive) | > 100 µM (inactive) | > 100 µM (inactive) | > 100 µM (inactive) | – | 57.1 µM (inactive) | 75.7 µM (inactive) | > 100 µM (inactive)
NNC(=O)c1ccccc1NC(=O)/C(=C/c1ccccc1O)NC(=O)c1ccccc1 | 11.9 µM (inactive) | 31.8 µM (inactive) | 20.3 µM (inactive) | 5.62 µM (inactive) | 22.8 µM (inactive) | – | – | 20.1 µM (inactive) | 72.3 µM (inactive) | 27.3 µM (inactive) | 94.6 µM (inactive) | > 100 µM (inactive) | 47.1 µM (inactive) | 67.1 µM (inactive) | 11.5 µM (inactive) | 28 µM (inactive) | 11.6 µM (inactive) | 12.8 µM (inactive) | 10.9 µM (inactive) | 38.4 µM (inactive)
COc1ccc(NC(/C(C(=O)c2ccccc2)=C(\O)C(=O)/C=C(\O)c2ccccc2)c2ccc(OC)cc2)cc1 (stereo not drawn) | 53.6 µM (inactive) | 71.6 µM (inactive) | > 100 µM (inactive) | 30.9 µM (inactive) | 43.6 µM (inactive) | 23.6 µM (inactive) | 52.4 µM (inactive) | 38.8 µM (inactive) | 49.3 µM (inactive) | 30.5 µM (inactive) | 35.7 µM (inactive) | 41.6 µM (inactive) | – | 52.4 µM (inactive) | 24.5 µM (inactive) | > 100 µM (inactive) | 17.8 µM (inactive) | 43.1 µM (inactive) | 26.6 µM (inactive) | 47 µM (inactive)
CC(=O)O[C@H]1CC[C@@]2(C)C(=CC[C@@H]3[C@@H]2CC[C@]2(C)c4c(C)nn(-c5ccccc5)c4C[C@@H]32)C1 | 19.4 µM (inactive) | 9.95 µM (inactive) | 25.1 µM (inactive) | 23 µM (inactive) | 13.8 µM (inactive) | – | 15.5 µM (inactive) | – | 37.2 µM (inactive) | 72.6 µM (inactive) | 24 µM (inactive) | 17 µM (inactive) | 12.3 µM (inactive) | 18.5 µM (inactive) | 33 µM (inactive) | 33.3 µM (inactive) | 15.6 µM (inactive) | 62.8 µM (inactive) | 16.4 µM (inactive) | 13.2 µM (inactive)
COc1ccc(/C(=N/O)c2ccccc2-c2nc3ccccc3c(=O)n2-c2ccc(S(=O)(=O)Nc3ncccn3)cc2)cc1C | 19.6 µM (inactive) | 17.6 µM (inactive) | 18.4 µM (inactive) | 18.1 µM (inactive) | 15.6 µM (inactive) | – | 16.1 µM (inactive) | 13.2 µM (inactive) | 12.8 µM (inactive) | 17.9 µM (inactive) | 20.4 µM (inactive) | 21.1 µM (inactive) | > 10 µM (inactive) | 12.1 µM (inactive) | 12.6 µM (inactive) | > 30.2 µM (inactive) | 14.2 µM (inactive) | 16.7 µM (inactive) | 10.2 µM (inactive) | 12 µM (inactive)
CCOC(=O)c1c(NC(=O)c2ccc(OC)cc2)sc2c1CCCC2 | > 100 µM (inactive) | > 100 µM (inactive) | > 100 µM (inactive) | > 100 µM (inactive) | > 100 µM (inactive) | > 100 µM (inactive) | > 100 µM (inactive) | > 100 µM (inactive) | > 100 µM (inactive) | – | > 100 µM (inactive) | > 100 µM (inactive) | – | > 100 µM (inactive) | > 100 µM (inactive) | > 100 µM (inactive) | – | > 100 µM (inactive) | – | > 100 µM (inactive)
CC[C@@]1(CCC(=O)NCCc2c[nH]c3ccccc23)CCC(=O)N2CCc3c([nH]c4ccccc34)[C@H]21 | 22.9 µM (inactive) | 4.31 µM (inactive) | 40.7 µM (inactive) | 4.19 µM (inactive) | 6.89 µM (inactive) | 17.1 µM (inactive) | 37 µM (inactive) | 12 µM (inactive) | 24.2 µM (inactive) | 12.9 µM (inactive) | 27.1 µM (inactive) | 29 µM (inactive) | 27.4 µM (inactive) | 17.1 µM (inactive) | 28.7 µM (inactive) | 39.5 µM (inactive) | – | 5.64 µM (inactive) | 14.2 µM (inactive) | 10.3 µM (inactive)
COc1cc2nc(-c3ccccc3F)nc(O)c2cc1OC | 63.2 µM (inactive) | > 100 µM (inactive) | > 100 µM (inactive) | > 100 µM (inactive) | 71.8 µM (inactive) | > 100 µM (inactive) | 92.5 µM (inactive) | – | > 100 µM (inactive) | > 100 µM (inactive) | > 100 µM (inactive) | > 100 µM (inactive) | > 100 µM (inactive) | 60 µM (inactive) | > 100 µM (inactive) | > 100 µM (inactive) | > 100 µM (inactive) | > 100 µM (inactive) | > 100 µM (inactive) | > 100 µM (inactive)
O=[N+]([O-])c1ccc(Oc2c(Cl)cc(S(=O)(=O)N/C(=N\O)Nc3ccc(Cl)cc3)cc2Cl)cc1 | 5.79 µM (inactive) | 12 µM (inactive) | 11 µM (inactive) | 13.5 µM (inactive) | 11.6 µM (inactive) | 10.9 µM (inactive) | 15.2 µM (inactive) | 13.5 µM (inactive) | 9.44 µM (inactive) | 3.94 µM (inactive) | 10.4 µM (inactive) | 15.1 µM (inactive) | 11.1 µM (inactive) | 11.5 µM (inactive) | 7.98 µM (inactive) | 12.5 µM (inactive) | – | 12.5 µM (inactive) | 4.1 µM (inactive) | 9.98 µM (inactive)
